For this test, the system named is P388 leukemia ip, CD2F1 mice, survival T/C. Nature of the test: NCI In Vivo Anticancer Drug Screen. Data for tumor model P388 Leukemia (intraperitoneal) in CD2F1 (CDF1) mice. The note with it: endpoint: median survival time, higher = longer survival. An outline of the steps: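 Mice carrying the transplanted tumor received test compound or vehicle. Survival was recorded in each group, and the value is the treated-group measurement divided by that of the vehicle-treated control group.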

Where “and” joins values, the source holds several entries; their conditions need not be identical. Equal values may be shown once. Toxic doses and inconclusive results are not listed.

`Cc1ccc(S(=O)(=O)Nc2cc(C)c3c(c2C)CCN=C3)cc1`: the T/C reads like this: (dose: 12.5 mg/kg/injection, schedule: Q01DX009 (ip), vehicle: distilled water + Tween-80) 93 % of control; (dose: 25.0 mg/kg/injection, schedule: Q01DX009 (ip), vehicle: distilled water + Tween-80) 91 % of control; (dose: 50.0 mg/kg/injection, schedule: Q01DX009 (ip), vehicle: distilled water + Tween-80) 88 % of control; (dose: 100.0 mg/kg/injection, schedule: Q01DX009 (ip), vehicle: distilled water + Tween-80) 93 % of control; (dose: 200.0 mg/kg/injection, schedule: Q01DX009 (ip), vehicle: distilled water + Tween-80) 91 % of control.

In the case of `COc1cccc2c1C(=O)c1c(O)c3c(c(O)c1C2=O)C[C@@](O)(/C(C)=N\NC(=O)CO)C[C@@H]3OC1CC(N)C(O)C(C)O1` (stereo partly drawn), the T/C (dose: 0.29 mg/kg/injection, schedule: Q04DX003 (ip), vehicle: saline) is 118 % of control; the T/C (dose: 0.78 mg/kg/injection, schedule: Q01DX009 (ip), vehicle: water) is 153 % of control; the T/C (dose: 1.0 mg/kg/injection, schedule: Q01DX009 (ip), vehicle: saline) is 152 % of control; the T/C (dose: 1.0 mg/kg/injection, schedule: Q04DX003 (ip), vehicle: saline) is 150 % of control; the T/C (dose: 1.32 mg/kg/injection, schedule: Q04DX003 (ip), vehicle: saline) is 150 % of control; the T/C (dose: 1.5 mg/kg/injection, schedule: Q01DX009 (ip), vehicle: saline) is 154 % of control. The T/C (dose: 1.56 mg/kg/injection, schedule: Q01DX009 (ip), vehicle: water) is 160 % of control; the T/C (dose: 2.0 mg/kg/injection, schedule: Q01DX009 (ip), vehicle: water) was 166 % of control; the T/C (dose: 2.0 mg/kg/injection, schedule: Q04DX003 (ip), vehicle: saline) is 154 % of control; the T/C (dose: 2.25 mg/kg/injection, schedule: Q01DX009 (ip), vehicle: saline) is 189 % of control; the T/C (dose: 2.5 mg/kg/injection, schedule: Q04DX003 (ip), vehicle: water) is 119 % of control; the T/C (dose: 3.0 mg/kg/injection, schedule: Q04DX003 (ip), vehicle: saline) is 177 % of control. Besides, the T/C is, setting by setting: (dose: 3.13 mg/kg/injection, schedule: Q01DX009 (ip), vehicle: water) 180 % of control; (dose: 4.0 mg/kg/injection, schedule: Q01DX009 (ip), vehicle: water) 192 % of control; (dose: 5.0 mg/kg/injection, schedule: Q04DX003 (ip), vehicle: water) 119 % of control; (dose: 6.25 mg/kg/injection, schedule: Q01DX009 (ip), vehicle: water) 108 % of control; (dose: 40.0 mg/kg/injection, schedule: Q04DX003 (ip), vehicle: water) 90 % of control; (dose: 80.0 mg/kg/injection, schedule: Q04DX003 (ip), vehicle: water) 90 % of control and 96 % of control.

Values taken from PubChem BioAssay AID330 (DTP/NCI, 2004).
